From patent US20220211603A1, “Oral Compositions And Methods Of Use” (3M INNOVATIVE PROPERTIES COMPANY, priority 2019, published 2022)

Test system: Streptococcus mutans (ATCC 25175) biofilm
Experiment: MBEC Biofilm Disruption Assay
Format: cell-based
Details: glucosamine HCl combined with MEGA-9 in water
From the text: In some embodiments, disclosed compositions can prevent, inhibit, disrupt the formation or maintenance of a biofilm in an area contacted with the composition. The area contacted can be in vivo or in vitro. In some embodiments, a composition can prevent, inhibit, disrupt the formation or maintenance of a biofilm in a mouth of a user where the composition was applied to the mouth, for example via spraying the composition into the mouth when compared to a mouth without the composition applied thereto. […] Preventing, inhibiting, disrupting, or some combination thereof the formation or maintenance of biofilms can be measured using a modified version of the MBEC assay (described in ASTM […]-12), which measures disruption of Streptococcus mutans biofilms grown on special pegs in a microtiter plate. […] The biofilm remaining on each peg following treatment is quantified by measuring the amount of fluorescently labeled bacteria that eluted from the pegs at the end of the treatment cycles (see example). […] Decreasing plaque buildup can be measured by a variety of methods in vivo including for example plaque scoring, dyeing of plaque, etc. […] Control wells for fluorescence readings were also filled with 150 microliter of phosphate-buffered saline (PBS) or non-bacteria-containing media consisting of BHI with 1% sucrose and 1 micromolar ALEXA FLUOR 488 dextran. […]

Compound: Cl.N[C@H]1C(O)O[C@H](CO)[C@@H](O)[C@@H]1O (stereo partly shown) [Glucosamine HCl]
- effect on biofilm disruption of MEGA-9 (in words): enhanced the biofilm disruption effect of MEGA-9
